Consider six compounds from US7547660B2, “Phenyl-substituted 4-hydroxy-tetrahydropyridones” (Bayer Aktiengesellschaft, priority 2000, dated 2009).

What all share (assay type): in vivo
In assay [1] the test system is Amaranthus. Description: Pre-emergence test, greenhouse. The settings on record: 500 g/ha, after three weeks. As for the experimental part: (§1) • Solvent: 5 parts by weight of acetone • Emulsifier: 1 part by weight of alkylaryl polyglycol ether
(§2) To produce a suitable preparation of active compound, 1 part by weight of active compound is mixed to the stated amount of solvent, the stated amount of emulsifier is added and the concentrate is diluted with water to the desired concentration.
(§3) Seeds of the test plants are sown in normal soil. After about 24 hours, the soil is sprayed with the preparation of active compounds such that the particular amounts of active compound desired are applied per unit area. The concentration of the spray liquor is chosen such that the particular amounts of active compound desired are applied in 1 000 l of water/ha.
(§4) After three weeks, the degree of damage to the plants is rated in % damage in comparison to the development of the untreated control.
(§5) The figures denote: • 0%=no effect (like untreated control) • 100%=total destruction

A further assay deals with Galium. Description: Pre-emergence test, greenhouse. The settings on record: 500 g/ha, after three weeks. On the procedure:
as §1, §2, §3, §4, §5

Assay [2] deals with Alopecurus. The experiment in a line: Pre-emergence test, greenhouse. Conditions: after three weeks. On the procedure: as §1, §2, §3, §4, §5
For another assay, the system named is Meloidogyne incognita. Description: Meloidogyne test. The settings on record: 20 ppm active compound; after 14 days; lettuce. As for the experimental part: Meloidogyne Test • Solvent: 30 parts by weight of dimethylformamide • Emulsifier: 1 part by weight of alkylaryl polyglycol ether To produce a suitable preparation of active compound, 1 part by weight of active compound is mixed with the stated amounts of solvent and emulsifier, and the concentrate is diluted with water to the desired concentration. Containers are filled with sand, solution of active compound, Meloidogyne incognita egg/larvae suspension and lettuce seeds. The lettuce seeds germinate and the plants develop. On the roots, galls are formed. After the desired period of time, the nematicidal action in % is determined using the formation of galls as a measure. 100% means that no galls have been found; 0% means that the number of galls on the treated plants corresponds to that on the untreated control.

A further assay relates to Tetranychus urticae. The experiment in a line: Tetranychus test (OP-resistent/dip treatment). The settings on record: 100 ppm active compound; after 7 days; bean plants dipped. As for the experimental part:
Tetranychus Test (OP-Resistent/Dip Treatment)
• Solvent: 30 parts by weight of dimethylformamide • Emulsifier: 1 part by weight of alkylaryl polyglycol ether
To produce a suitable preparation of active compound, 1 part by weight of active compound is mixed with the stated amounts of solvent and emulsifier, and the concentrate is diluted with emulsifier-containing water to the desired concentration.
Bean plants (Phaseolus vulgaris) which are heavily infested by all stages of the greenhouse […] spider mite (Tetranychus urticae) are treated by being dipped into a preparation of active compound of the desired concentration.
After the desired period of time, the effect in % is determined. 100% means that all spider mites have been killed; 0% means that none of the spider mites have been killed.

Assay [3] deals with Echinochloa. Description: Post-emergence test, greenhouse. Conditions: after three weeks. As for the experimental part: as §1
(§6) To produce a suitable preparation of active compound, 1 part by weight of active compound is mixed with the stated amount of solvent, the stated amount of emulsifier is added and the concentrate is diluted with water to the desired concentration.
(§7) Test plants of a height of 5-15 cm are sprayed with the preparation of active compound such that the particular amounts of active compound desired are applied per unit area. The concentration of the spray liquor was chosen such that the particular amounts of active compound desired are applied in 1 000 l of water/ha.
as §4, §5

The next assay relates to Sugar beet. The experiment in a line: Post-emergence test, greenhouse. The settings on record: after three weeks. On the procedure: as §1, §6, §7, §4, §5
Assay [4] deals with Amaranthus. The experiment in a line: Post-emergence test, greenhouse. Conditions: after three weeks. As for the experimental part:
as §1, §6, §7, §4, §5

In assay [5] the test system is Setaria. Description: Post-emergence test, greenhouse. The settings on record: after three weeks. On the procedure:
as §1, §6, §7, §4, §5

Assay [6] relates to Alopecurus. The experiment in a line: Post-emergence test, greenhouse. The settings on record: 2 000 g/ha, after three weeks. As for the experimental part: as §1, §6, §7, §4, §5
For assay [7], the system named is Echinochloa. The experiment in a line: Pre-emergence test, greenhouse. Conditions: after three weeks. On the procedure:
as §1, §2, §3, §4, §5

Assay [8] concerns Setaria. The experiment in a line: Pre-emergence test, greenhouse. Conditions: after three weeks. On the procedure: as §1, §2, §3, §4, §5
For a further assay, the system named is Wheat. The experiment in a line: Pre-emergence test, greenhouse. Conditions: 250 g/ha, after three weeks. As for the experimental part: as §1, §2, §3, §4, §5
The next assay concerns Lolium. Description: Pre-emergence test, greenhouse. The settings on record: 250 g/ha, after three weeks. On the procedure: as §1, §2, §3, §4, §5
Another assay concerns Digitaria. Description: Pre-emergence test, greenhouse. The settings on record: 250 g/ha, after three weeks. On the procedure: as §1, §2, §3, §4, §5
The next assay relates to Soya. Description: Pre-emergence test, greenhouse. Conditions: 250 g/ha, after three weeks. As for the experimental part:
as §1, §2, §3, §4, §5

Assay [9] deals with Avena fatua. Description: Post-emergence test, greenhouse. Conditions: 2 000 g/ha, after three weeks. As for the experimental part:
as §1, §6, §7, §4, §5

Assay [10] has as its system Avena fatua. The experiment in a line: Pre-emergence test, greenhouse. Conditions: 2 000 g/ha, after three weeks. As for the experimental part: as §1, §2, §3, §4, §5

In the case of `Cc1cc(Cl)cc(Cl)c1C1=C(O)CC(C)(C)NC1=O` [I-a-3], the “% damage Amaranthus” value in the assay with Amaranthus [1] was 70%. For the same compound, the “% damage Galium” value in the assay with Galium is 100%. The “% damage Alopecurus” value in the assay on Alopecurus [2] (500 g/ha) was 70%.

In the case of `Cc1ccc(Br)cc1C1=C(O)CC(C)(C)NC1=O` [I-a-4], in the assay on Meloidogyne incognita, the “kill (nematicidal action, formation of galls as measure)” value worked out at 95%.

As for `Cc1ccc(-c2ccc(Cl)cc2)cc1C1=C(O)CC(C)(C)NC1=O` [I-a-5], in the assay on Tetranychus urticae, the “kill of spider mites” value was determined as 99%.

In the case of `Cc1cc(Br)cc(Cl)c1C1=C(O)CC(C)(C)NC1=O` [I-a-10], the “% damage Echinochloa” value in the assay with Echinochloa [3] (2 000 g/ha) and in the assay with Echinochloa [7] (250 g/ha) was 80% each time. In addition, the “% damage Sugar beet” value in the assay on Sugar beet (2 000 g/ha) came to 0%. In addition, the “% damage Amaranthus” value in the assay on Amaranthus [4] (2 000 g/ha) worked out at 70%. Further, the “% damage Setaria” value in the assay with Setaria [5] (2 000 g/ha) worked out at 80%; in the assay with Setaria [8] (250 g/ha), 95%. The “% damage Alopecurus” value in the assay on Alopecurus [6] was found to be 70%. In the assay on Wheat, the “% damage Wheat” value was 0%. Further, the “% damage Lolium” value with Lolium stood at 100%. For the same compound, the “% damage Digitaria” value in the assay with Digitaria worked out at 90%. Also, the “% damage Soya” value in the assay with Soya turned out to be 0%.

On to `CCc1cc(Br)cc(Cl)c1C1=C(O)CC(C)(C)NC1=O` [I-a-11], for which the “% damage Avena fatua” value in the assay on Avena fatua [9] and in the assay on Avena fatua [10] was 100% each time. The “% damage Echinochloa” value in the assay with Echinochloa [3] (2 000 g/ha) and with Echinochloa [7] (2 000 g/ha) was 100% throughout. Also, the “% damage Sugar beet” value in the assay with Sugar beet (2 000 g/ha) came to 90%. The “% damage Setaria” value in the assay on Setaria [5] (2 000 g/ha) and in the assay on Setaria [8] (2 000 g/ha) was 100% each time. Further, the “% damage Alopecurus” value in the assay on Alopecurus [6] is reported as 95%; in the assay on Alopecurus [2] (2 000 g/ha), 100%.

In the case of `CCOC(=O)OC1=C(c2cc(-c3ccc(Cl)cc3)ccc2C)C(=O)NC(C)(C)C1` [I-c-1], the “kill of spider mites” value in the assay on Tetranychus urticae came out at 95%. Besides, the “% damage Echinochloa” value in the assay with Echinochloa [3] (250 g/ha) is 70%. Besides, the “% damage Sugar beet” value in the assay with Sugar beet (250 g/ha) was 0%. In addition, the “% damage Amaranthus” value with Amaranthus [4] (250 g/ha) was 80%. Besides, the “% damage Setaria” value with Setaria [5] (250 g/ha) was 80%.
